This is an account of results in US20250276989A1, “GPR40 AGONISTS” (Kallyope, Inc., priority 2020, published 2025).

The target of one data set is T1, human GPR40 (Homo sapiens, UniProt O14842).
T1 construct: host or cells: CHO-K1
Description: Inositol phosphate accumulation assay (IP1 HTRF) in CHO-K1 cells expressing human GPR40. The format is cell-based. The note with it: 90 min stimulation. As for the experimental part: CHO-K1 cells expressing human GPR40 were purchased from DiscoverX (95-1005C2). HEK293 cells expressing mouse FFAR1 were prepared using a mouse FFAR1 carrying plasmid purchased from OriGene Technologies (MR222997). The cells were transfected using Lipofectamine 2000 using manufacturer instructions and stable cell line was established from a single cell using geneticine selection. Assay ready frozen (ARF) cells were prepared and used throughout the study.
The assay was performed in a 384-well plate format using IP1 assay kit from Cis-Bio. ARF cells expressing FFAR1 (mouse and human) were thawed, washed and then plated in the appropriate medium (F12 based medium for CHO hFFAR1 and DMEM based medium for HEK293 mFFAR1—both were supplemented with 10% FBS and penicillin/streptomycin). 20 μL of 3.5×10^5 cells/mL were plated on a Poly D-Lysine coated 384-well white plate. The cells were then incubated for 16 hr at 37° C./5% CO2. After 16 hr the medium was removed and 15 μL of stimulation buffer containing the test compounds was added to the cells. The plates were then incubated for 90 min at 37° C./5% CO2. 5 μL of detection buffer (prepared as described in the IP-one kit) was added to each well and the plates were incubated at RT for 1 hr.
[…] was measured using ClarioSTAR plate reader, calculating the ratio between emissions at 665 nm and 620 nm (HTRF ratio). HTRF ratio for positive (Max) and negative (Min) controls were used to normalize HTRF data and generate values for % activity. EC50 and Max activity values were determined using a standard 4-parameter fit.
A general note: In TR-FRET formats the signal depends on donor and acceptor labels being close together.

Data set [1] can be described thus: In vivo plasma levels in mice. The note with it: male C57BL/6J mice, 30 mg/kg oral gavage; for Exposure (nM) (unbound), unbound exposure in plasma: total exposure x free fraction from plasma protein binding. How it is done: Male C57BL/6J mice 10-12 weeks old were dosed with test article (30 mg/kg) or vehicle by oral gavage. Animals were euthanized with carbon dioxide at 2 h or 5 h post dose. Blood was collected for measurement of plasma concentrations of test article. Unbound exposure was calculated by multiplying the measured total exposure by the free fraction as assessed from plasma protein binding.
Plasma protein binding to isotonic phosphate buffer (PBS) containing 10% C57 BL/6 mouse plasma was determined using equilibrium dialysis of plasma spiked with test article (2 μM) against a dialysis buffer (100 mM sodium phosphate and 150 mM NaCl). At the end of the dialysis (4 hr), aliquots of the plasma and buffer were processed by protein precipitation for LC-MS/MS analysis to quantitate the test article.
Results for exemplary compounds (total exposure in plasma and unbound exposure in plasma; ratio of EC50 to unbound exposure in plasma) are shown in Table 2.

Broadly, the EC50 is the concentration giving half of the maximal effect.

T1 sequence (O14842 whole entry): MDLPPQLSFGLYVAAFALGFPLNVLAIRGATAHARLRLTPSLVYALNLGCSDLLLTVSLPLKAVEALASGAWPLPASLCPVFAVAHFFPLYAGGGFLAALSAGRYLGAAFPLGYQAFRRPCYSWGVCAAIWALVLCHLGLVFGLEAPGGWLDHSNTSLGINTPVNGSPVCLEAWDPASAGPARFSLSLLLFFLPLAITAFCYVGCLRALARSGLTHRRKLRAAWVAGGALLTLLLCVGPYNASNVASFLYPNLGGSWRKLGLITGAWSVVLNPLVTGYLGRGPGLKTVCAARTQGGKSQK

With `COc1ccc(F)c([C@H]2CC[C@H](COc3cccc(C(C4CC4)C(C)P(=O)(O)O)c3)CC2)c1` (stereo partly drawn) [Compound 4, (1-cyclopropyl-1-(3-(((trans)-4-(2-fluoro-5-methoxyphenyl)cyclohexyl)methoxy)phenyl)propan-2-yl)phosphonic acid], the EC50 at human GPR40 was > 1000 nM.
As to `COc1ccc(CCCC(C)(C)C)c(N2CCC(COc3cccc([C@H](C)CP(C)(=O)O)c3)CC2)c1` [Compound 15, ((S)-2-(3-((1-(2-(4,4-dimethylpentyl)-5-methoxyphenyl)piperidin-4-yl)methoxy)phenyl)propyl)(methyl)phosphinic acid], at human GPR40, the EC50 was ≤ 50 nM.
The compound `COc1ccc(F)c([C@H]2CC[C@H](COc3cccc(C(CP(C)(=O)O)C4CC4)c3)CC2)c1` (single isomer, unassigned) [Compound 8, (2-cyclopropyl-2-(3-(((trans)-4-(2-fluoro-5-methoxyphenyl)cyclohexyl)methoxy)phenyl)ethyl)(methyl)phosphinic acid] displayed an EC50 at human GPR40 of 50 to 250 nM.
Still for that read-out and setting: for `CC[C@@H](Cc1cccc(OCC2CCN(c3cc(OC)ccc3CCCC(C)(C)C)CC2)c1)P(C)(=O)O` [Compound 18, ((S)-1-(3-((1-(2-(4,4-dimethylpentyl)-5-methoxyphenyl)piperidin-4-yl)methoxy)phenyl)butan-2-yl)(methyl)phosphinic acid] the value was 250 to 1000 nM; for `COc1ccc(CCCC(C)(C)C)c(N2CCC(COc3cccc([C@@H](C)CP(C)(=O)O)c3)CC2)c1` [Compound 14, ((R)-2-(3-((1-(2-(4,4-dimethylpentyl)-5-methoxyphenyl)piperidin-4-yl)methoxy)phenyl)propyl)(methyl)phosphinic acid], 50 to 250 nM; for `COc1ccc(CCCC(C)(C)C)c(N2CCC(COc3cccc([C@@H](CP(C)(=O)O)C4CC4)c3)CC2)c1` [Compound 10, ((S)-2-cyclopropyl-2-(3-((1-(2-(4,4-dimethylpentyl)-5-methoxyphenyl)piperidin-4-yl)methoxy)phenyl)ethyl)(methyl)phosphinic acid], ≤ 50 nM.
The same measure, in the same setting: for `COc1ccc(F)c([C@H]2CC[C@H](COc3cccc(C(CS(=O)(=O)O)C4CC4)c3)CC2)c1` (stereo partly drawn) [Compound 3, 2-cyclopropyl-2-(3-(((trans)-4-(2-fluoro-5-methoxyphenyl)cyclohexyl)methoxy)phenyl)ethanesulfonic acid] the value was > 1000 nM.
`COc1ccc(F)c([C@H]2CC[C@H](COc3cccc(C(CP(C)(=O)O)C4CC4)c3)CC2)c1` (single isomer, unassigned) [Compound 6, (2-cyclopropyl-2-(3-(((trans)-4-(2-fluoro-5-methoxyphenyl)cyclohexyl)methoxy)phenyl)ethyl)(methyl)phosphinic acid] showed an EC50 on human GPR40 of 50 to 250 nM.
On to `COc1ccc(CCCC(C)(C)C)c(N2CCC(COc3cccc([C@@H](C)CP(=O)(O)O)c3)CC2)c1` [Compound 20, (R)-(2-(3-((1-(2-(4,4-dimethylpentyl)-5-methoxyphenyl)piperidin-4-yl)methoxy)phenyl)propyl)phosphonic acid], for which, at human GPR40, the EC50 was > 1000 nM.
For `COc1ccc(F)c([C@H]2CC[C@H](COc3cccc(C(CP(C)(=O)O)C4CC4)c3)CC2)c1` (single isomer, unassigned) [Compound 5, (2-cyclopropyl-2-(3-(((trans)-4-(2-fluoro-5-methoxyphenyl)cyclohexyl)methoxy)phenyl)ethyl)(methyl)phosphinic acid], in data set [1] (2 h post-dose), the “Exposure (nM) (unbound), unbound exposure in plasma” value stood at 2.5 nM. The concentration at 2 h in data set [1] (mouse, plasma, 2 h post-dose, read-out: Exposure (nM), total exposure in plasma) came to 8300 nM. In addition, the EC50 at human GPR40 was ≤ 50 nM.
Consider `COc1ccc(CCCC(C)(C)C)c(N2CCC(COc3cccc(CC(C)P(=O)(O)O)c3)CC2)c1` (stereo not drawn) [Compound 16, (1-(3-((1-(2-(4,4-dimethylpentyl)-5-methoxyphenyl)piperidin-4-yl)methoxy)phenyl)propan-2-yl)phosphonic acid], for which, on human GPR40, the EC50 is > 1000 nM.
Take `COc1ccc(CCCC(C)(C)C)c(N2CCC(COc3cc([C@@H](C)CP(C)(=O)O)ccn3)CC2)c1` [Compound 12, ((R)-2-(2-((1-(2-(4,4-dimethylpentyl)-5-methoxyphenyl)piperidin-4-yl)methoxy)pyridin-4-yl)propyl)(methyl)phosphinic acid]: the EC50 at human GPR40 was ≤ 50 nM.
For the compound `CC[C@H](Cc1cccc(OCC2CCN(c3cc(OC)ccc3CCCC(C)(C)C)CC2)c1)P(C)(=O)O` [Compound 17, ((R)-1-(3-((1-(2-(4,4-dimethylpentyl)-5-methoxyphenyl)piperidin-4-yl)methoxy)phenyl)butan-2-yl)(methyl)phosphinic acid], on human GPR40, the EC50 lay in the range of 250 to 1000 nM.
Take `COc1ccc(F)c([C@H]2CC[C@H](COc3cccc(C(CP(=O)(O)O)C4CC4)c3)CC2)c1` (stereo partly drawn) [Compound 2, (2-cyclopropyl-2-(3-(((trans)-4-(2-fluoro-5-methoxyphenyl)cyclohexyl)methoxy)phenyl)ethyl)phosphonic acid]: the EC50 on human GPR40 was > 1000 nM.
In the case of `COc1ccc(F)c([C@H]2CC[C@H](COc3cc([C@@H](CP(C)(=O)O)C4CC4)ccn3)CC2)c1` [Compound 9, ((S)-2-cyclopropyl-2-(2-(((trans)-4-(2-fluoro-5-methoxyphenyl)cyclohexyl)methoxy)pyridin-4-yl)ethyl)(methyl)phosphinic acid], the “Exposure (nM) (unbound), unbound exposure in plasma” value in data set [1] (5 h post-dose) is 2.3 nM. Also, in data set [1] (mouse, plasma, 5 h post-dose, read-out: Exposure (nM), total exposure in plasma), the concentration at 5 h was found to be 1160 nM. The EC50 at human GPR40 was ≤ 50 nM.
Take `COc1ccc(F)c([C@H]2CC[C@H](COc3cccc(C(CP(C)(=O)O)C4CC4)c3)CC2)c1` (single isomer, unassigned) [Compound 7, (2-cyclopropyl-2-(3-(((trans)-4-(2-fluoro-5-methoxyphenyl)cyclohexyl)methoxy)phenyl)ethyl)(methyl)phosphinic acid]: the EC50 at human GPR40 is ≤ 50 nM.
As to `COc1ccc(CCCC(C)(C)C)c(N2CCC(COc3cc([C@@H](CP(C)(=O)O)C4CC4)ccn3)CC2)c1` [Compound 11, ((S)-2-cyclopropyl-2-(2-((1-(2-(4,4-dimethylpentyl)-5-methoxyphenyl)piperidin-4-yl)methoxy)pyridin-4-yl)ethyl)(methyl)phosphinic acid], the EC50 on human GPR40 was ≤ 50 nM.
`COc1ccc(CCCC(C)(C)C)c(N2CCC(COc3cccc([C@H](C)CP(=O)(O)O)c3)CC2)c1` [Compound 19, (S)-(2-(3-((1-(2-(4,4-dimethylpentyl)-5-methoxyphenyl)piperidin-4-yl)methoxy)phenyl)propyl)phosphonic acid]: on human GPR40, the EC50 lay within 250 to 1000 nM.
Turning to `COc1ccc(F)c([C@H]2CC[C@H](COc3cccc(C(CP(=O)(O)OC)C4CC4)c3)CC2)c1` (stereo partly drawn) [Compound 1, methyl hydrogen (2-cyclopropyl-2-(3-(((trans)-4-(2-fluoro-5-methoxyphenyl)cyclohexyl)methoxy)phenyl)ethyl)phosphonate], on human GPR40, the EC50 is 250 to 1000 nM.
The same measure, in the same setting: for `COc1ccc(CCCC(C)(C)C)c(N2CCC(COc3cc([C@H](C)CP(C)(=O)O)ccn3)CC2)c1` [Compound 13, ((S)-2-(2-((1-(2-(4,4-dimethylpentyl)-5-methoxyphenyl)piperidin-4-yl)methoxy)pyridin-4-yl)propyl)(methyl)phosphinic acid] the value was 250 to 1000 nM.
